# The supplement of paper PMC8967900
# Tested on: P30-OHKUBO
# Experiment: selective drug sensitivity score (sDSS, relative to normal bone marrow) (sDSS (score)); higher = more potent and effective on the cell line relative to normal bone marrow cells
# Settings: 72 h
# 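Further: ALL cell lines in 384-well plates, five doses spanning 10,000-fold, each plate scaled between vehicle and 100 µmol/L benzalkonium chloride controls, sDSS an adapted area-under-curve metric.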
row,SMILES,selective drug sensitivity score
1,COC12C(COC(N)=O)C3=C(C(=O)C(C)=C(N)C3=O)N1CC1NC12 (stereo in doubt) [Mitomycin_C] (top concentration 10000 nM),2.24
2,Cc1c(-c2c(-c3ccc(F)o3)sc3ncnc(O[C@H](Cc4ccccc4OCc4ccnn4CC(F)(F)F)C(=O)O)c23)ccc(OCCN2CCN(C)CC2)c1Cl (top concentration 1000 nM),1.26
3,Cc1ncc(Cl)cc1NCc1ccc(C(=O)N[C@@H](CC2CCCC2)C(=O)NC2CC2)s1 (top concentration 5000 nM),-0.94
4,CCn1c(-c2nonc2N)nc2c(C#CC(C)(C)O)ncc(OC[C@H]3CCCNC3)c21 (top concentration 10000 nM),3.88
5,CN(c1ncccc1CNc1nc(Nc2ccc3c(c2)CC(=O)N3)ncc1C(F)(F)F)S(C)(=O)=O (top concentration 10000 nM),2.72
6,CNc1ncc2cc(-c3cc(NC(=O)NCCC(C)(C)C)c(F)cc3C)c(C)nc2n1 (top concentration 10000 nM),5.86
7,C[C@@]1(C(=O)Nc2ccc(F)nc2)CCCN1c1nc(Nc2cc(C3CC3)n[nH]2)c2cccn2n1 (top concentration 10000 nM),11.2
8,Cc1nc(Nc2n[nH]c3c2CN(C(=O)N[C@H](CN(C)C)c2ccccc2)C3(C)C)c2sccc2n1 (top concentration 10000 nM),12
9,Cn1cc(-c2[nH]c3cc(NC(=O)[C@H](N)C4CCCCC4)cc4c3c2C=NNC4=O)cn1 (top concentration 10000 nM),9.08
10,Cn1cc(-c2ccc(F)c(C(F)(F)F)c2)nc1C1CCN(c2ncnc3[nH]ncc23)CC1 (top concentration 10000 nM),-0.14
11,O=C(Nc1ccc2[nH]nc(-c3ccncc3)c2c1)[C@@H]1CCN(CC(=O)N2CCN(c3ccc(-c4ncccn4)cc3)CC2)C1 (top concentration 10000 nM),-3.74
12,CC(C)(C)c1cc(NC(=O)Nc2ccc(Oc3ccnc4[nH]c(=O)cnc34)cc2F)n(-c2ccccc2)n1 (top concentration 25000 nM),-0.08
13,Nc1ncnc2c1nc(N)n2[C@@H]1O[C@H](CO)[C@@H](O)[C@H]1O [8-amino-adenosine] (top concentration 50000 nM),6.18
14,CC(C)[C@@H](CS(=O)(=O)C(C)C)N1C(=O)[C@@](C)(CC(=O)O)C[C@H](c2cccc(Cl)c2)[C@H]1c1ccc(Cl)cc1 [AMG-232] (top concentration 10000 nM),8.96
15,CC(C)[C@H](C(=O)Nc1ccc(C(=O)NO)cc1)c1ccccc1 [AR-42] (top concentration 10000 nM),5.18
16,O=C(Nc1c[nH]nc1-c1nc2ccc(CN3CCOCC3)cc2[nH]1)NC1CC1 [AT9283] (top concentration 1000 nM),16
17,CCN(CCO)CCCOc1ccc2c(Nc3cc(CC(=O)Nc4cccc(F)c4)[nH]n3)ncnc2c1 [AZD1152-HQPA] (top concentration 1000 nM),24.7
18,Cc1[nH]nc(C(F)(F)F)c1Cc1sc2c(c1C(=O)N1C[C@](C)(O)CO1)c(=O)n(C)c(=O)n2C(C)C [AZD3965] (top concentration 1000 nM),1.8

# Tested on: TANOUE
# Experiment: as above
# Settings: 72 h
row,SMILES,selective drug sensitivity score
1,COC12C(COC(N)=O)C3=C(C(=O)C(C)=C(N)C3=O)N1CC1NC12 (stereo in doubt) [Mitomycin_C] (top concentration 10000 nM),-2.86
2,Cc1c(-c2c(-c3ccc(F)o3)sc3ncnc(O[C@H](Cc4ccccc4OCc4ccnn4CC(F)(F)F)C(=O)O)c23)ccc(OCCN2CCN(C)CC2)c1Cl (top concentration 1000 nM),-7.74
3,Cc1ncc(Cl)cc1NCc1ccc(C(=O)N[C@@H](CC2CCCC2)C(=O)NC2CC2)s1 (top concentration 5000 nM),-0.94
4,CCn1c(-c2nonc2N)nc2c(C#CC(C)(C)O)ncc(OC[C@H]3CCCNC3)c21 (top concentration 10000 nM),-1.12
5,CN(c1ncccc1CNc1nc(Nc2ccc3c(c2)CC(=O)N3)ncc1C(F)(F)F)S(C)(=O)=O (top concentration 10000 nM),-3.98
6,CNc1ncc2cc(-c3cc(NC(=O)NCCC(C)(C)C)c(F)cc3C)c(C)nc2n1 (top concentration 10000 nM),-2.84
7,C[C@@]1(C(=O)Nc2ccc(F)nc2)CCCN1c1nc(Nc2cc(C3CC3)n[nH]2)c2cccn2n1 (top concentration 10000 nM),-6.52
8,Cc1nc(Nc2n[nH]c3c2CN(C(=O)N[C@H](CN(C)C)c2ccccc2)C3(C)C)c2sccc2n1 (top concentration 10000 nM),-11.1
9,Cn1cc(-c2[nH]c3cc(NC(=O)[C@H](N)C4CCCCC4)cc4c3c2C=NNC4=O)cn1 (top concentration 10000 nM),-5.22
10,Cn1cc(-c2ccc(F)c(C(F)(F)F)c2)nc1C1CCN(c2ncnc3[nH]ncc23)CC1 (top concentration 10000 nM),0.96
11,O=C(Nc1ccc2[nH]nc(-c3ccncc3)c2c1)[C@@H]1CCN(CC(=O)N2CCN(c3ccc(-c4ncccn4)cc3)CC2)C1 (top concentration 10000 nM),-4.64
12,CC(C)(C)c1cc(NC(=O)Nc2ccc(Oc3ccnc4[nH]c(=O)cnc34)cc2F)n(-c2ccccc2)n1 (top concentration 25000 nM),-5.68
13,Nc1ncnc2c1nc(N)n2[C@@H]1O[C@H](CO)[C@@H](O)[C@H]1O [8-amino-adenosine] (top concentration 50000 nM),0.98
14,CC(C)[C@@H](CS(=O)(=O)C(C)C)N1C(=O)[C@@](C)(CC(=O)O)C[C@H](c2cccc(Cl)c2)[C@H]1c1ccc(Cl)cc1 [AMG-232] (top concentration 10000 nM),-10.5
15,CC(C)[C@H](C(=O)Nc1ccc(C(=O)NO)cc1)c1ccccc1 [AR-42] (top concentration 10000 nM),-4.22
16,O=C(Nc1c[nH]nc1-c1nc2ccc(CN3CCOCC3)cc2[nH]1)NC1CC1 [AT9283] (top concentration 1000 nM),-4.38
17,CCN(CCO)CCCOc1ccc2c(Nc3cc(CC(=O)Nc4cccc(F)c4)[nH]n3)ncnc2c1 [AZD1152-HQPA] (top concentration 1000 nM),-3.06
18,Cc1[nH]nc(C(F)(F)F)c1Cc1sc2c(c1C(=O)N1C[C@](C)(O)CO1)c(=O)n(C)c(=O)n2C(C)C [AZD3965] (top concentration 1000 nM),2.6

# Tested on: COG-LL-319h
# Experiment: as above
# Settings: 72 h
row,SMILES,selective drug sensitivity score
1,COC12C(COC(N)=O)C3=C(C(=O)C(C)=C(N)C3=O)N1CC1NC12 (stereo in doubt) [Mitomycin_C] (top concentration 10000 nM),9.74
2,Cc1c(-c2c(-c3ccc(F)o3)sc3ncnc(O[C@H](Cc4ccccc4OCc4ccnn4CC(F)(F)F)C(=O)O)c23)ccc(OCCN2CCN(C)CC2)c1Cl (top concentration 1000 nM),15.8
3,Cc1ncc(Cl)cc1NCc1ccc(C(=O)N[C@@H](CC2CCCC2)C(=O)NC2CC2)s1 (top concentration 5000 nM),14.3
4,CCn1c(-c2nonc2N)nc2c(C#CC(C)(C)O)ncc(OC[C@H]3CCCNC3)c21 (top concentration 10000 nM),7.38
5,CN(c1ncccc1CNc1nc(Nc2ccc3c(c2)CC(=O)N3)ncc1C(F)(F)F)S(C)(=O)=O (top concentration 10000 nM),4.52
6,CNc1ncc2cc(-c3cc(NC(=O)NCCC(C)(C)C)c(F)cc3C)c(C)nc2n1 (top concentration 10000 nM),12.1
7,C[C@@]1(C(=O)Nc2ccc(F)nc2)CCCN1c1nc(Nc2cc(C3CC3)n[nH]2)c2cccn2n1 (top concentration 10000 nM),8.78
8,Cc1nc(Nc2n[nH]c3c2CN(C(=O)N[C@H](CN(C)C)c2ccccc2)C3(C)C)c2sccc2n1 (top concentration 10000 nM),4.28
9,Cn1cc(-c2[nH]c3cc(NC(=O)[C@H](N)C4CCCCC4)cc4c3c2C=NNC4=O)cn1 (top concentration 10000 nM),11.5
